The source of these data is patent US5591757A, “Dihydropyridine composition” (Yamanouchi Pharmaceutical Co., Ltd., priority 1984, dated 1997).

The target of experiment [1] is T1, Beta-adrenoceptor (Rattus norvegicus, UniProt P18090). In words: Beta-adrenoceptor blocking effect in reserpinized rats (isoproterenol chronotropy). The conditions noted are these: isoproterenol 0.1 μg/kg iv, cumulative iv doses, read-out: Beta-Blocking ED50 (50% blockade of positive chronotropic response to isoproterenol). Also noted: The rats were anesthetized with pentobarbital sodium; from tissue; host or cells: heart in the living anesthetized male Wistar rat (reserpine-pretreated, vagotomized). It is filed as in vivo, male Wistar rats. The protocol:
(§1) The rats were pretreated with reserpine (8 mg/kg ip), 18 hr before experiments. […] The heart rate was measured with a cardiotachometer triggered by the QRS of the ECG (lead II) and recorded on a polygraph. After the Control response to isoproterenol at a dose of 0.1 μg/kg iv was obtained, the test compound was injected iv in increasing doses at 20 min intervals.

The subject of experiment [2] is mean arterial blood pressure (MBP) and coronary blood flow (Cor. BF). The experiment can be described thus: Hemodynamic effects in anesthetized open-chest dogs (i.v.). Type of experiment: in vivo, mongrel dogs. Particulars: Canis lupus familiaris, anesthetized dogs; for change in vivo at 1 mg/kg: 1.0 mg/kg iv; for change in vivo at 0.1 mg/kg: 0.1 mg/kg iv; for change in vivo at 0.03 mg/kg: 0.03 mg/kg iv; for change in vivo at 0.3 mg/kg: 0.3 mg/kg iv. As to the method:
Mongrel dogs of either sex were anesthetized with pentobarbital sodium (30 mg/kg iv). The animals were artificially ventilated with room air. The chest was opened at the left 4th intercostal space. Mean arterial blood pressure (MBP), heart rate (HR), left ventricular pressure (LVP), max. dLVP/dt, mean pulmonary arterial blood pressure (MPAP), cardiac output (CO) and coronary blood flow (Cor. BF) were measured. The test compounds were injected into the femoral vein. […] BF from control values induced by intravenous injection of test compounds.

In another experiment the test system is left coronary artery. The experiment can be described thus: Coronary vasodilating effects in dogs (intracoronary). It is filed as in vivo, mongrel dogs. Particulars: for Duration of action of coronary vasodilating effect: intracoronary (ia). The protocol: Mongrel dogs of either sex were anesthetized and ventilated as previously described. A thoracotomy was performed at the 4th intercostal space. Following an intravenous injection of heprin (1000 units/kg), blood from the distal end of the cannulated carotid artery was pumped into circumflex branch of the left coronary artery using a servocontrolled peristaltic pump which maintained a constant perfusion pressure of 120 mmHg by means of a pump controller. An electromagnetic flow probe was inserted in the circit to record blood flow through the cannulated coronary artery. The test compounds were administered directly into the rubber tubing connected close to the coronary artery cannula.

The target in experiment [3] is T1, Beta-adrenoceptor. The experiment can be described thus: Intrinsic sympathomimetic activity (ISA) in reserpinized rats. Type of experiment: in vivo, male Wistar rats. Also noted: The rats were anesthetized with pentobarbital sodium; from tissue; host or cells: heart in the living anesthetized male Wistar rat (reserpine-pretreated, vagotomized). The conditions noted are these: reserpine-pretreated rats, iv. As to the method: as §1
In this series of experiments, intrinsic sympathomimetic activity (ISA) was also evaluated.

Where [4] appears, read: read-out: percent change of Cor. BF from control.
Where [5] appears, read: read-out: percent change of MBP from control.

Where a name gives a salt, the structure may show the parent alone. Read-outs that look alike come from different tables or passages of the source.

T1 sequence (P18090 whole entry): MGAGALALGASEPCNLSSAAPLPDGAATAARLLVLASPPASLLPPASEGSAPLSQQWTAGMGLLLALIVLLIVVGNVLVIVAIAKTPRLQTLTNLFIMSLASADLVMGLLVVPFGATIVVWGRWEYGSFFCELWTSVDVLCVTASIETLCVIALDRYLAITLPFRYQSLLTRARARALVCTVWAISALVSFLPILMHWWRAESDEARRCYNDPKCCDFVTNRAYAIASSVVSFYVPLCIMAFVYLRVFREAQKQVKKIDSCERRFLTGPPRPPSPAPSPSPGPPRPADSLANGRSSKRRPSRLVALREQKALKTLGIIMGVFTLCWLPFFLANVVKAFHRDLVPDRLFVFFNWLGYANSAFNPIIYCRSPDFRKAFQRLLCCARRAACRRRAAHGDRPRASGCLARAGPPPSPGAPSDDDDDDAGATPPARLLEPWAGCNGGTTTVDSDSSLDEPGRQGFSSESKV

Turning to `COC(=O)C1=C(C)NC(C)=C(C(=O)OCCCCCCNCC(O)COc2ccccc2)C1c1cccc(C(F)(F)F)c1` (centres unmarked) [Example 7, 6-(2-hydroxy-3-phenoxypropylamino)hexyl methyl 2,6-dimethyl-4-(m-trifluoromethylphenyl)-1,4-dihydropyridin-3,5-dicarboxylate], the ED50 at Beta-adrenoceptor [1] came out at 1.93 mg/kg. Also, the change in vivo at 1 mg/kg in experiment [2] (setting [4]) was 24%; in experiment [2] (setting [5]), -20%. Besides, the “ED100 pap (dose for 100% increase of Cor. BF; maximum response to papaverine 300 μg ia = 100%)” value in the experiment with left coronary artery is recorded as 100 μg ia. Moreover, in the experiment with left coronary artery, the “Duration of action of coronary vasodilating effect” value (“Duration” for short) is listed as greater than 60 min. The “ISA (increase in HR)” value at Beta-adrenoceptor [3] is given as “-”.

`COC(=O)C1=C(C)NC(C)=C(C(=O)OCCCCNCC(O)COc2ccccc2)C1c1cccc([N+](=O)[O-])c1.Cl` (centres unmarked) [Example 11, 4-(2-hydroxy-3-phenoxy-propylamino)butyl methyl 2,6-dimethyl-4-(m-nitro-phenyl)-1,4-dihydropyridine-3,5-dicarboxylate hydrochloride]: the ED50 at Beta-adrenoceptor [1] stood at 0.64 mg/kg. Also, in experiment [2] (setting [4]), the change in vivo at 0.1 mg/kg stood at 35% and the change in vivo at 1 mg/kg turned out to be 193%. Besides, in experiment [2] (setting [5]), the change in vivo at 0.1 mg/kg was -16% and the change in vivo at 1 mg/kg is -41%. In addition, in the experiment on left coronary artery, the “ED100 pap (dose for 100% increase of Cor. BF; maximum response to papaverine 300 μg ia = 100%)” value is given as 150 μg ia and the “Duration” value was 60 min. For the same compound, on Beta-adrenoceptor [3], the “ISA (increase in HR)” value is “++ (an increase in HR by 20 to 29 beats/min was observed)”.

On to `COC(=O)C1=C(C)NC(C)=C(C(=O)OCCCCCCCCCCNCC(O)COc2ccccc2)C1c1cccc([N+](=O)[O-])c1.Cl` (centres unmarked) [Example 13, 10-(2-hydroxy-3-phenoxy-propylamino)decyl methyl 2,6-dimethyl-4-(m-nitro-phenyl)-1,4-dihydropyridine-3,5-dicarboxylate hydrochloride], for which, at Beta-adrenoceptor [1], the ED50 turned out to be 0.72 mg/kg. Besides, in experiment [2] (setting [4]), the change in vivo at 0.03 mg/kg stood at 102%. For the same compound, the change in vivo at 0.03 mg/kg in experiment [2] (setting [5]) is -21%. Moreover, in the experiment with left coronary artery, the “ED100 pap (dose for 100% increase of Cor. BF; maximum response to papaverine 300 μg ia = 100%)” value is reported as 12 μg ia and the “Duration” value turned out to be 60 min. Moreover, the “ISA (increase in HR)” value on Beta-adrenoceptor [3] is on record as “+ (an increase in HR by 10 to 19 beats/min was observed)”.

As to `CCOC(=O)C1=C(C)NC(C)=C(C(=O)OCCCCCCNCC(O)COc2ccccc2)C1c1cccc([N+](=O)[O-])c1` (centres unmarked) [Example 18, Ethyl 6-(2-hydroxy-3-phenoxy/propylamino)hexyl 2,6-dimethyl-4-(m-nitrophenyl)-1,4-dihydroxypyridine-3,5-dicarboxylate], the ED50 at Beta-adrenoceptor [1] was 1.25 mg/kg. In addition, the change in vivo at 0.3 mg/kg in experiment [2] (setting [4]) was found to be 31%. The change in vivo at 0.3 mg/kg in experiment [2] (setting [5]) was -22%. Besides, in the experiment on left coronary artery, the “ED100 pap (dose for 100% increase of Cor. BF; maximum response to papaverine 300 μg ia = 100%)” value is 67 μg ia and the “Duration” value is given as greater than 60 min. For the same compound, at Beta-adrenoceptor [3], the “ISA (increase in HR)” value is “-”.

Take `CC1=C(C(=O)OCCCCCCNCC(O)COc2ccccc2)C(c2cccc([N+](=O)[O-])c2)C(C(=O)OC(C)(C)C)=C(C)N1.Cl` (centres unmarked) [Example 21, tert-butyl 6-(2-hydroxy-3-phenoxypropylamino)hexyl 2,6-dimethyl-4-(m-nitrophenyl)-1,4-dihydropyridine-3,5-dicarboxylate hydrochloride]: on Beta-adrenoceptor [1], the ED50 is 1.01 mg/kg. Besides, the change in vivo at 1 mg/kg in experiment [2] (setting [4]) is 34%. In experiment [2] (setting [5]), the change in vivo at 1 mg/kg is -28%. Besides, in the experiment on left coronary artery, the “ED100 pap (dose for 100% increase of Cor. BF; maximum response to papaverine 300 μg ia = 100%)” value is recorded as 137 μg ia and the “Duration” value amounted to 60 min. Besides, the “ISA (increase in HR)” value on Beta-adrenoceptor [3] is “+ (an increase in HR by 10 to 19 beats/min was observed)”.

Consider `COCCOC(=O)C1=C(C)NC(C)=C(C(=O)OCCCCCCNCC(O)COc2ccccc2)C1c1cccc([N+](=O)[O-])c1` (centres unmarked) [Example 22, 6-(2-hydroxy-3-phenoxy-propylamino)hexyl 2-methoxyethyl-2,6-dimethyl-4-(m-nitrophenyl-3,5-dicarboxylate hydrochloride], for which the ED50 at Beta-adrenoceptor [1] was determined as 0.82 mg/kg. Further, in experiment [2] (setting [4]), the change in vivo at 0.3 mg/kg turned out to be 118%. For the same compound, the change in vivo at 0.3 mg/kg in experiment [2] (setting [5]) was -22%. In addition, in the experiment with left coronary artery, the “ED100 pap (dose for 100% increase of Cor. BF; maximum response to papaverine 300 μg ia = 100%)” value is on record as 128 μg ia and the “Duration” value is on record as 60 min. For the same compound, the “ISA (increase in HR)” value at Beta-adrenoceptor [3] is “-”.

Regarding `COC(=O)C1=C(C)NC(C)=C(C(=O)OCCCCCCNCC(O)COc2ccccc2C#N)C1c1cccc([N+](=O)[O-])c1.Cl` (centres unmarked) [Example 30, 6-[3-(o-cyanophenoxy)-2-hydroxypropylamino]hexyl methyl 2,6-dimethyl-4-(m-nitrophenyl)-1,4-di-hydropyridine-3,5-dicarboxylate hydrochloride], the ED50 at Beta-adrenoceptor [1] came to 0.79 mg/kg. The change in vivo at 0.1 mg/kg in experiment [2] (setting [4]) is 12%; in experiment [2] (setting [5]), -21%. The “ISA (increase in HR)” value on Beta-adrenoceptor [3] was “-”.

Regarding `COC(=O)C1=C(C)NC(C)=C(C(=O)OCCCCCCNCC(O)COc2ccccc2Cl)C1c1cccc([N+](=O)[O-])c1` (centres unmarked) [Example 32, 6-[3-(o-chlorophenoxy)-2-hydroxypropylamino]hexyl methyl 2,6-dimethyl-4-(m-nitrophenyl)-1,4-dihyrdopyridine-3,5-dicarboxylate hydrochloride], at Beta-adrenoceptor [1], the ED50 came to 1.18 mg/kg. In addition, in experiment [2] (setting [4]), the change in vivo at 0.1 mg/kg was 35% and the change in vivo at 0.3 mg/kg amounted to 93%. Moreover, in experiment [2] (setting [5]), the change in vivo at 0.1 mg/kg is -18% and the change in vivo at 0.3 mg/kg was -36%. Moreover, on Beta-adrenoceptor [3], the “ISA (increase in HR)” value is “-”.

`COC(=O)C1=C(C)NC(C)=C(C(=O)OCCCCCCNCC(O)COc2ccccc2)C1c1ccccc1[N+](=O)[O-]` (centres unmarked) [Example 41, 6-(2-hydroxy-3-phenoxypropylamino)hexyl methyl 2,6-dimethyl-4-(o-nitrophenyl)-1,4-dihydropyridine-3,5-dicarboxylate]: the ED50 at Beta-adrenoceptor [1] stood at 0.58 mg/kg. The change in vivo at 0.3 mg/kg is 45% in experiment [2] (setting [4]) and -34% in experiment [2] (setting [5]). Further, the “ED100 pap (dose for 100% increase of Cor. BF; maximum response to papaverine 300 μg ia = 100%)” value in the experiment on left coronary artery was found to be 43 μg ia. Moreover, in the experiment with left coronary artery, the “Duration” value is greater than 60 min. For the same compound, the “ISA (increase in HR)” value at Beta-adrenoceptor [3] is recorded as “+++ (an increase in HR by above 30 beats/min)”.

As for `COC(=O)C1=C(C)NC(C)=C(C(=O)OCCCCCCNCC(O)COc2ccccc2)C1c1cccc(Cl)c1.Cl` (centres unmarked) [Example 43, 6-(2-hydroxy-3-phenoxypropylamino)hexyl methyl 4-(m-chlorophenyl)-2,6-dimethyl-1,4-dihydro-pyridine-3,5-dicarboxylate hydrochloride], the ED50 on Beta-adrenoceptor [1] turned out to be 0.87 mg/kg. The change in vivo at 0.3 mg/kg in experiment [2] (setting [4]) was determined as 44%. Further, the change in vivo at 0.3 mg/kg in experiment [2] (setting [5]) is -22%. For the same compound, in the experiment on left coronary artery, the “ED100 pap (dose for 100% increase of Cor. BF; maximum response to papaverine 300 μg ia = 100%)” value is recorded as 56 μg ia and the “Duration” value is greater than 60 min. Further, the “ISA (increase in HR)” value on Beta-adrenoceptor [3] was “-”.

Consider `COC(=O)C1=C(C)NC(C)=C(C(=O)OCCCCCCNCC(O)COc2ccccc2)C1c1cccc(OC)c1` (centres unmarked) [Example 46, 6-(2-hydroxy-3-phenoxypropylamino)hexyl methyl 2,6-dimethyl-4-(m-methoxyphenyl)-1,4-dihyrdopyridine-3,5-dicarboxylate hydrochloride], for which, at Beta-adrenoceptor [1], the ED50 is 0.66 mg/kg. Moreover, in experiment [2] (setting [4]), the change in vivo at 0.3 mg/kg was found to be 36% and the change in vivo at 1 mg/kg was 78%. In experiment [2] (setting [5]), the change in vivo at 0.3 mg/kg is -21% and the change in vivo at 1 mg/kg was -45%. Further, in the experiment with left coronary artery, the “ED100 pap (dose for 100% increase of Cor. BF; maximum response to papaverine 300 μg ia = 100%)” value is 98 μg ia and the “Duration” value was greater than 60 min. Moreover, the “ISA (increase in HR)” value on Beta-adrenoceptor [3] was “+ (an increase in HR by 10 to 19 beats/min was observed)”.

By ED50 is commonly meant the dose at which the effect has come halfway, by size or by number of responders.
